Experimental data reported in PMC10649961, “Novel Mitochondria-Targeted Amphiphilic Aminophosphonium Salts and Lipids Nanoparticles: Synthesis, Antitumor Activity and Toxicity” (Nanomaterials, 2023).

Experiments:
Assay type in all cases: cell-based, human
caspase 8 = assay: Caspase 8 ELISA in cell lysates; conditions: HuTu 80 lysates, relative to the control
Procedure: (§1) In vitro quantitative measurement of caspase-9 and caspase-8 was performed using ELISA kits (ELISA Kit for Caspase 9 and ELISA Kit for Caspase 8, Human Cloud-Clone Corp., Wuhan, China). The analysis was carried out according to the manufacturer’s instructions. Samples were standardized for total protein content (1 mg/mL). Protein concentration was determined with Coomassie-based assays using Bredford Dye Reagent (Bio-Rad, Hercules, CA, USA). The absorbance was measured using a microplate reader, EPOCH (BioTek Instruments, Inc., Winooski, VT, USA), at a wavelength of 450 ± 10 nm. Lysates of untreated HuTu 80 cells were used as controls.
(§2) To confirm that apoptosis induced by compounds 4b, 5b, 6a, and 8 proceeds along the internal (mitochondrial) pathway, studies were conducted to determine the enzymatic activity of the early apoptosis key markers—caspase 9 and caspase 8 using ELISA kits. The kits are sandwich enzyme immunoassays for in vitro quantitative measurement of Caspase 8 and Caspase 9 in cell lysates, rat tissue homogenates, and other biological fluids. Caspase 9 plays a key role in the mitochondrial signaling pathway of apoptosis induction. The activation of caspase 8 characterizes the external (receptor-dependent) pathway of apoptosis. HuTu 80 cells not treated with the tested compounds were used as a control.

caspase 9 = assay: Caspase 9 ELISA in cell lysates; conditions: HuTu 80 lysates, IC50/2 and IC50, compared with the control
Procedure: as §1, §2

HuTu 80 cells = assay: Mitochondrial membrane potential, JC-10 flow cytometry; conditions: HuTu 80, 48-h treatment
Procedure: The cells are prepared as in the Cell Apoptosis Assay section. Cells were detached with trypsin/versene solution (1:3), suspended in PBS, collected at 2000 rpm for 5 min, then washed twice with ice-cold PBS, followed by resuspension in JC-10 (10 μg/mL) and incubation at 37 °C for 10 min. The cells were then washed three times and suspended in PBS, and JC-10 fluorescence was observed by flow cytometry (Guava Easy Cyte).
Most forms of apoptosis in mammals are realized not through cell death receptors but through the mitochondrial pathway. In this case, the outer membrane of the mitochondria breaks, and soluble proteins of the intermembrane space enter the cytoplasm. The permeability of the outer membrane of mitochondria is a finely regulated process, and its increase is a key event in triggering apoptosis. Induction of apoptosis by compounds 4b, 5b, 6a, and 8 at concentrations of IC50/2 and IC50 via the mitochondrial pathway on the HuTu 80 cell line was studied by flow cytometry using the fluorescent dye JC-10 from the Mitochondria Membrane Potential Kit.

SMILES | concentration of caspase 8 (in words) (caspase 8) | concentration of caspase 9 (in words) (caspase 9) | effect on mitochondrial membrane potential (in words) (HuTu 80 cells)
CCCCCCCC[P+](N(CC)CC)(N(CC)CC)N(CC)CC [4b, Tris(diethylamino)(octyl)phosphonium iodide] | significantly decreased | significantly increased | decrease in the mitochondrial membrane potential
CCCCCC[P+](c1ccccc1)(c1ccccc1)N(CC)CC [6a, (Diethylamino)(hexyl)diphenylphosphonium iodide] |  | significantly increased | decrease in the mitochondrial membrane potential
CCCCCCCC[P+](c1ccccc1)(N(CC)CC)N(CC)CC [5b, Bis(diethylamino)(octyl)(phenyl)phosphonium iodide] | significantly decreased | significantly increased | decrease in the mitochondrial membrane potential
CCCCCCCC[P+](c1ccccc1)(c1ccccc1)c1ccccc1 [compound 8, Octyltriphenylphosphonium iodide, reference compound] |  | significantly increased | decrease in the mitochondrial membrane potential
